Measurements: paper PMC10698032, “A monoacylglycerol lipase inhibitor showing therapeutic efficacy in mice without central side effects or dependence” (Nature Communications, 2023)

How the values were obtained:
[1] = target: T1, MAGL (monoacylglycerol lipase) (Homo sapiens, UniProt Q99685); test: fluorescent 2-AG hydrolysis assay on human MAGL-overexpressing HEK293T membranes; type: biochemical
T1 construct: gene MGLL; full-length, C-terminal FLAG-tag, HEK293T membrane fractions

[2] = target: T2, MAGL (monoacylglycerol lipase) (Mus musculus, UniProt O35678); test: gel-based competitive ABPP with FP-TAMRA at […]; type: cell-based; design: gene Mgll; endogenous, mouse brain membrane proteome; details: read-out: % inhibition at 10 μM
T2 sequence (O35678 1-303): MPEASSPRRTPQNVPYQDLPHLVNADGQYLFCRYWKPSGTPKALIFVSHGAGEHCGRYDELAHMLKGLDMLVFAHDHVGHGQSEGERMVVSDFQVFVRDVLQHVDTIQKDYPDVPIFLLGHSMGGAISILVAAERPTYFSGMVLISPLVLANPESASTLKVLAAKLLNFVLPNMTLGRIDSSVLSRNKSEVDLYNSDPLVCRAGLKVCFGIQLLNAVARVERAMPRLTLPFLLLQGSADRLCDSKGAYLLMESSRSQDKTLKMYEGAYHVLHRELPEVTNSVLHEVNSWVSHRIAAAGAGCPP

[3] = target: T2, MAGL (monoacylglycerol lipase); test: biochemical; design: gene Mgll; endogenous, mouse brain membrane proteome; gel-based competitive ABPP with FP-TAMRA on mouse brain membrane proteome, MAGL labelling, n=1; details: read-out: Inhibition ABPP assay (%)
Description: Subsequently, the qualified hits underwent testing in an orthogonal gel-based competitive activity-based protein profiling (ABPP) assay, a powerful technique for obtaining an initial selectivity profile of these compounds. The assay employed fluorophosphonate-tetramethylrhodamine (FP-TAMRA), a broad-spectrum activity-based probe designed to target a wide range of serine hydrolases, including endocannabinoid hydrolases like MAGL, fatty acid amide hydrolase (FAAH), and alpha/beta hydrolase domain-containing protein 6 (ABHD6)[30],[31]. […] This observation could indicate potential species differences or a short residence time for the target. A correlation between inhibitor potency in the primary substrate-based assay and the orthogonal ABPP assay was, however, noted for the majority of compounds (Fig. 1f). […] This characteristic positions it as a promising candidate for further optimization. 71 Figure S1 72 73 74 75 76 Supplementary Figure 1 – Orthogonal competitive ABPP assay for hit validation and selectivity assessment. 77 ABPP was performed on mouse brain membrane proteome using FP-TAMRA. Proteome was pre-incubated with 78 inhibitor (10 µM, 30 min), followed by incubation with FP-TAMRA (100 nM, 10 min). JZL184 was included as 79 positive control on all gels. […] Physicochemical properties (cLogP, tPSA, HBD, HBA) were calculated using ChemDraw Professional 31 16.0.

T1 sequence (Q99685 whole entry): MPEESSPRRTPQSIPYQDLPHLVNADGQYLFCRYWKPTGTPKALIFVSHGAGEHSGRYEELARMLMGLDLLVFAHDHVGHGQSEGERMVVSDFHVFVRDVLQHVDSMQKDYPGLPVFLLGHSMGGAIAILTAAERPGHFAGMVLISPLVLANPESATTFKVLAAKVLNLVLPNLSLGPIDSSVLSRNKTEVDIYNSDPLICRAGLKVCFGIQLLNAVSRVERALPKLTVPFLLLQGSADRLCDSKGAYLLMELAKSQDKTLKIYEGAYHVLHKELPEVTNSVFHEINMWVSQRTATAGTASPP

IC50 [1]: 398 nM
inhibition at 10 µM [2]: > 25%
inhibition at 10 µM [3]: 86%
Structure (SMILES): CCOC(=O)C[S+]([O-])c1ccc(C(=O)N2CCN(c3cccc(C)c3)C(C)C2)cc1[N+](=O)[O-] (stereo not drawn) [compound 1, ethyl 2-((4-(3-methyl-4-(m-tolyl)piperazine-1-carbonyl)-2-nitrophenyl)sulfinyl)acetate]
